Results: patent publication US20100061928A1, “LABELLED ANALOGUES OF HALOBENZAMIDES AS RADIOPHARMACEUTICALS” (Institut National De La Sante et De La Recherche Medicale …, priority 2006, published 2010)
Where a name gives a salt, the structure may show the parent alone.

Key:
[1] = tested on: tumour; assay: Dosimetry with regard to the tumour (MIRD programme, extrapolated to ^131I); conditions: for Effective period: extrapolated to 131I labelling; for Biological period: from biodistribution data
[2] = tested on: grafted B16 F0 murine melanoma tumour; assay: Biodistribution of the ^125I-labelled molecules in the melanoma-bearing mouse (autoradiography of whole-body sections); conditions: ^125I-labelled compound
[3] = Elimination of the molecules: cumulative urinary and faecal excretion 0-72 hours; format: in vivo, mouse; conditions: for Faecal elimination 0-72 hours (Faeces) / Urinary and faecal elimination 0-72 hours (Total) / Urinary elimination 0-72 hours (Urine): cumulative excretion 0-72 hours; for Faecal elimination 0-72 hours (Faeces) / Urinary elimination 0-72 hours (Urine): mice in metabolic cages; for Urinary and faecal elimination 0-72 hours (Total): urine + faeces

CCN(CC)CCNC(=O)c1ccc(I)nc1 [compound 7, N-(2-diethylaminoethyl)-6-iodonicotinamide dihydrochloride]
Effective period [1]: 17.3 h
Biological period [1]: 19.0 hours
Concentration of radioactivity, B 16 (tumour), Mean ([2]; 1 H after i.v. administration): 15.49 % ID/g
Concentration of radioactivity, GB (gall bladder), Mean ([2]; 1 H after i.v. administration): 8.68 % ID/g
Concentration of radioactivity, Ic (intestinal contents), Mean ([2]; 1 H after i.v. administration): 13.44 % ID/g
Concentration of radioactivity, SV (seminal vesicles), Mean ([2]; 1 H after i.v. administration): 6.79 % ID/g
Concentration of radioactivity, Sc (stomach contents), Mean ([2]; 1 H after i.v. administration): 34.80 % ID/g
Concentration of radioactivity, blood (measured in the heart cavity), Mean ([2]; 1 H after i.v. administration): 6.67 % ID/g
Concentration of radioactivity, brain, Mean ([2]; 1 H after i.v. administration): 0.64 % ID/g
Concentration of radioactivity, kidney, Mean ([2]; 1 H after i.v. administration): 6.08 % ID/g
Concentration of radioactivity, liver, Mean ([2]; 1 H after i.v. administration): 5.14 % ID/g
Concentration of radioactivity, lungs, Mean ([2]; 1 H after i.v. administration): 7.59 % ID/g
Concentration of radioactivity, muscle (skeletal muscle), Mean ([2]; 1 H after i.v. administration): 1.48 % ID/g
Concentration of radioactivity, pancreas, Mean ([2]; 1 H after i.v. administration): 3.94 % ID/g
Concentration of radioactivity, spleen, Mean ([2]; 1 H after i.v. administration): 5.44 % ID/g
Concentration of radioactivity, testicles, Mean ([2]; 1 H after i.v. administration): 4.11 % ID/g
Concentration of radioactivity, thyroid, Mean ([2]; 1 H after i.v. administration): 25.29 % ID/g
Concentration of radioactivity, uvea (pigmented tissues of the eye), Mean ([2]; 1 H after i.v. administration): 16.66 % ID/g
Concentration of radioactivity, B 16 (tumour), Mean ([2]; 3 H after i.v. administration): 9.27 % ID/g
Concentration of radioactivity, GB (gall bladder), Mean ([2]; 3 H after i.v. administration): 6.78 % ID/g
Concentration of radioactivity, Ic (intestinal contents), Mean ([2]; 3 H after i.v. administration): 4.94 % ID/g
Concentration of radioactivity, SV (seminal vesicles), Mean ([2]; 3 H after i.v. administration): 3.78 % ID/g
Concentration of radioactivity, Sc (stomach contents), Mean ([2]; 3 H after i.v. administration): 42.71 % ID/g
Concentration of radioactivity, blood (measured in the heart cavity), Mean ([2]; 3 H after i.v. administration): 4.22 % ID/g
Concentration of radioactivity, brain, Mean ([2]; 3 H after i.v. administration): 0.22 % ID/g
Concentration of radioactivity, kidney, Mean ([2]; 3 H after i.v. administration): 3.26 % ID/g
Concentration of radioactivity, liver, Mean ([2]; 3 H after i.v. administration): 3.01 % ID/g
Concentration of radioactivity, lungs, Mean ([2]; 3 H after i.v. administration): 3.96 % ID/g
Concentration of radioactivity, pancreas, Mean ([2]; 3 H after i.v. administration): 2.53 % ID/g
Concentration of radioactivity, spleen, Mean ([2]; 3 H after i.v. administration): 2.68 % ID/g
Concentration of radioactivity, testicles, Mean ([2]; 3 H after i.v. administration): 2.43 % ID/g
Concentration of radioactivity, thyroid, Mean ([2]; 3 H after i.v. administration): 59.09 % ID/g
Concentration of radioactivity, uvea (pigmented tissues of the eye), Mean ([2]; 3 H after i.v. administration): 12.69 % ID/g
Concentration of radioactivity, B 16 (tumour), Mean ([2]; 6 H after i.v. administration): 6.97 % ID/g
Concentration of radioactivity, GB (gall bladder), Mean ([2]; 6 H after i.v. administration): 4.90 % ID/g
Concentration of radioactivity, Ic (intestinal contents), Mean ([2]; 6 H after i.v. administration): 2.98 % ID/g
Concentration of radioactivity, SV (seminal vesicles), Mean ([2]; 6 H after i.v. administration): 3.55 % ID/g
Concentration of radioactivity, Sc (stomach contents), Mean ([2]; 6 H after i.v. administration): 50.21 % ID/g
Concentration of radioactivity, blood (measured in the heart cavity), Mean ([2]; 6 H after i.v. administration): 3.71 % ID/g
Concentration of radioactivity, brain, Mean ([2]; 6 H after i.v. administration): 0.12 % ID/g
Concentration of radioactivity, kidney, Mean ([2]; 6 H after i.v. administration): 3.05 % ID/g
Concentration of radioactivity, liver, Mean ([2]; 6 H after i.v. administration): 2.09 % ID/g
Concentration of radioactivity, lungs, Mean ([2]; 6 H after i.v. administration): 3.21 % ID/g
Concentration of radioactivity, muscle (skeletal muscle), Mean ([2]; 6 H after i.v. administration): 0.53 % ID/g
Concentration of radioactivity, pancreas, Mean ([2]; 6 H after i.v. administration): 2.27 % ID/g
Concentration of radioactivity, spleen, Mean ([2]; 6 H after i.v. administration): 2.35 % ID/g
Concentration of radioactivity, testicles, Mean ([2]; 6 H after i.v. administration): 2.01 % ID/g
Concentration of radioactivity, thyroid, Mean ([2]; 6 H after i.v. administration): 7.92 % ID/g
Concentration of radioactivity, uvea (pigmented tissues of the eye), Mean ([2]; 6 H after i.v. administration): 11.50 % ID/g
Concentration of radioactivity, B 16 (tumour), Mean ([2]; 24 H after i.v. administration): 2.69 % ID/g
Concentration of radioactivity, Sc (stomach contents), Mean ([2]; 24 H after i.v. administration): 1.46 % ID/g
Concentration of radioactivity, thyroid, Mean ([2]; 24 H after i.v. administration): 111.30 % ID/g
Concentration of radioactivity, uvea (pigmented tissues of the eye), Mean ([2]; 24 H after i.v. administration): 6.07 % ID/g
Concentration of radioactivity, B 16 (tumour), Mean ([2]; 72 H after i.v. administration): 0.87 % ID/g
Concentration of radioactivity, kidney, Mean ([2]; 72 H after i.v. administration): 1.09 % ID/g
Concentration of radioactivity, thyroid, Mean ([2]; 72 H after i.v. administration): 178.80 % ID/g
Concentration of radioactivity, uvea (pigmented tissues of the eye), Mean ([2]; 72 H after i.v. administration): 2.54 % ID/g
Faecal elimination 0-72 hours (Faeces) [3]: 5.3%
Urinary and faecal elimination 0-72 hours (Total) [3]: 72.6%
Urinary elimination 0-72 hours (Urine) [3]: 67.3%
elimination route (in words) ([3]; urinary versus faecal, 0-72 hours): predominantly in the urine

CCN(CC)CCNC(=O)c1ccc2cc(I)ccc2c1 [compound 3, N-(2-diethylaminoethyl)-6-iodo-2-naphthamide hydrochloride]
Effective period [1]: 21.4 h
Biological period [1]: 24.0 hours
Concentration of radioactivity, B 16 (tumour), Mean ([2]; 1 H after i.v. administration): 12.99 % ID/g
Concentration of radioactivity, Ic (intestinal contents), Mean ([2]; 1 H after i.v. administration): 7.82 % ID/g
Concentration of radioactivity, Sc (stomach contents), Mean ([2]; 1 H after i.v. administration): 27.82 % ID/g
Concentration of radioactivity, blood (measured in the heart cavity), Mean ([2]; 1 H after i.v. administration): 2.97 % ID/g
Concentration of radioactivity, brain, Mean ([2]; 1 H after i.v. administration): 4.37 % ID/g
Concentration of radioactivity, kidney, Mean ([2]; 1 H after i.v. administration): 13.30 % ID/g
Concentration of radioactivity, liver, Mean ([2]; 1 H after i.v. administration): 9.46 % ID/g
Concentration of radioactivity, lungs, Mean ([2]; 1 H after i.v. administration): 11.82 % ID/g
Concentration of radioactivity, muscle (skeletal muscle), Mean ([2]; 1 H after i.v. administration): 1.92 % ID/g
Concentration of radioactivity, pancreas, Mean ([2]; 1 H after i.v. administration): 10.18 % ID/g
Concentration of radioactivity, spleen, Mean ([2]; 1 H after i.v. administration): 9.70 % ID/g
Concentration of radioactivity, uvea (pigmented tissues of the eye), Mean ([2]; 1 H after i.v. administration): 13.21 % ID/g
Concentration of radioactivity, B 16 (tumour), Mean ([2]; 3 H after i.v. administration): 11.38 % ID/g
Concentration of radioactivity, Ic (intestinal contents), Mean ([2]; 3 H after i.v. administration): 25.85 % ID/g
Concentration of radioactivity, Sc (stomach contents), Mean ([2]; 3 H after i.v. administration): 24.69 % ID/g
Concentration of radioactivity, blood (measured in the heart cavity), Mean ([2]; 3 H after i.v. administration): 1.77 % ID/g
Concentration of radioactivity, brain, Mean ([2]; 3 H after i.v. administration): 0.78 % ID/g
Concentration of radioactivity, kidney, Mean ([2]; 3 H after i.v. administration): 5.65 % ID/g
Concentration of radioactivity, liver, Mean ([2]; 3 H after i.v. administration): 4.75 % ID/g
Concentration of radioactivity, lungs, Mean ([2]; 3 H after i.v. administration): 4.43 % ID/g
Concentration of radioactivity, muscle (skeletal muscle), Mean ([2]; 3 H after i.v. administration): 0.83 % ID/g
Concentration of radioactivity, pancreas, Mean ([2]; 3 H after i.v. administration): 8.19 % ID/g
Concentration of radioactivity, spleen, Mean ([2]; 3 H after i.v. administration): 2.59 % ID/g
Concentration of radioactivity, uvea (pigmented tissues of the eye), Mean ([2]; 3 H after i.v. administration): 13.90 % ID/g
Concentration of radioactivity, B 16 (tumour), Mean ([2]; 6 H after i.v. administration): 8.95 % ID/g
Concentration of radioactivity, Ic (intestinal contents), Mean ([2]; 6 H after i.v. administration): 18.72 % ID/g
Concentration of radioactivity, Sc (stomach contents), Mean ([2]; 6 H after i.v. administration): 10.79 % ID/g
Concentration of radioactivity, blood (measured in the heart cavity), Mean ([2]; 6 H after i.v. administration): 1.74 % ID/g
Concentration of radioactivity, brain, Mean ([2]; 6 H after i.v. administration): 0.25 % ID/g
Concentration of radioactivity, kidney, Mean ([2]; 6 H after i.v. administration): 3.07 % ID/g
Concentration of radioactivity, liver, Mean ([2]; 6 H after i.v. administration): 2.73 % ID/g
Concentration of radioactivity, lungs, Mean ([2]; 6 H after i.v. administration): 2.12 % ID/g
Concentration of radioactivity, muscle (skeletal muscle), Mean ([2]; 6 H after i.v. administration): 0.38 % ID/g
Concentration of radioactivity, spleen, Mean ([2]; 6 H after i.v. administration): 8.05 % ID/g
Concentration of radioactivity, uvea (pigmented tissues of the eye), Mean ([2]; 6 H after i.v. administration): 12.76 % ID/g
Concentration of radioactivity, B 16 (tumour), Mean ([2]; 24 H after i.v. administration): 6.97 % ID/g
Concentration of radioactivity, Ic (intestinal contents), Mean ([2]; 24 H after i.v. administration): 3.03 % ID/g
Concentration of radioactivity, Sc (stomach contents), Mean ([2]; 24 H after i.v. administration): 3.10 % ID/g
Concentration of radioactivity, uvea (pigmented tissues of the eye), Mean ([2]; 24 H after i.v. administration): 12.28 % ID/g
Concentration of radioactivity, B 16 (tumour), Mean ([2]; 72 H after i.v. administration): 1.52 % ID/g
Concentration of radioactivity, uvea (pigmented tissues of the eye), Mean ([2]; 72 H after i.v. administration): 7.84 % ID/g
Faecal elimination 0-72 hours (Faeces) [3]: 26.7%
Urinary and faecal elimination 0-72 hours (Total) [3]: 70.6%
Urinary elimination 0-72 hours (Urine) [3]: 43.7%
